ChEMBL document CHEMBL5357017, “Small Molecule Fluorescent Ligands for the Atypical Chemokine Receptor 3 (ACKR3)” (ACS Med Chem Lett, 2024)
Activity calls are given as the source filed them. No cut-off for these calls is given here.

Experiments:
[1] = biological target: T1, Atypical chemokine receptor 3 (Homo sapiens, UniProt P25106); experiment: (§1) Binding affinity to NanoLuc tagged human wild type ACKR3 expressed in HEK293G cells using furimazine as NanoLuc substrate preincubated for 1 hr in dark in presence of (R)-N-(3-(2-fluorophenyl)-2methylallyl)-3,4,5-trimethoxyN-(2-(1-methylpyrrolidin-2yl)ethyl)benzamide followed by substrate addition and measured after 5 mins by NanoBRET competition binding assay; type: cell-based
T1 sequence (P25106 whole entry): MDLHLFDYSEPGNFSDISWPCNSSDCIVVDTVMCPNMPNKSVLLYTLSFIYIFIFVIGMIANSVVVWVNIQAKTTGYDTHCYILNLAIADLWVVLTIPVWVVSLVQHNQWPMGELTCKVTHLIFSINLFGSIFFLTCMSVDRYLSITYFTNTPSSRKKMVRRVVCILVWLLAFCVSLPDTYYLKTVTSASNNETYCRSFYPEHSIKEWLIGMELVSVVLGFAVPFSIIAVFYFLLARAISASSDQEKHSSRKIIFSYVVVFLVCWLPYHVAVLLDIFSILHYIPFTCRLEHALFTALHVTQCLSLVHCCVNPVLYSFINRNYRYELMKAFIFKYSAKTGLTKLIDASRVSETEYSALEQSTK

[2] = biological target: T1, Atypical chemokine receptor 3; experiment: Binding affinity to NanoLuc tagged human wild type ACKR3 expressed in HEK293G cells using furimazine as NanoLuc substrate preincubated for 1 hr in dark followed by substrate addition and measured after 5 mins by NanoBRET assay; type: cell-based; details: time 65.0 min
[3] = biological target: T1, Atypical chemokine receptor 3; experiment: as §1, with “NanoBRET” for “NanoBRET competition binding”; type: cell-based
[4] = biological target: T1, Atypical chemokine receptor 3; experiment: Binding affinity to ACKR3 (unknown origin) by [125I] CXCL12 displacement assay
[5] = biological target: T1, Atypical chemokine receptor 3; experiment: Binding affinity to N-terminal SNAP-tagged ACKR3 (unknown origin) transfected in HEK293T cells assessed as internalization by measuring receptor colocalized intracellular fluorescence at 50 to 100 nM preincubated with (R)-N-(3-(2-fluorophenyl)-2-methylallyl)-3,4,5-trimethoxy-N-(2-(1-methylpyrrolidin-2-yl)ethyl)benzamide for 30 mins followed by fluorescent compound addition and further incubated for 30 mins by confocal microscopic analysis; type: cell-based; details: dose 50-100 nM
[6] = biological target: T1, Atypical chemokine receptor 3; experiment: Binding affinity to N-terminal SNAP-tagged ACKR3 (unknown origin) transfected in HEK293T cells assessed as internalization by measuring receptor colocalized intracellular fluorescence at 50 to 100 nM incubated for 30 mins by confocal microscopic analysis; type: cell-based; details: dose 50-100 nM

Which Ki [1] does the source give for C/C(=C\c1ccccc1)CN(CCC1CCCN1C)C(=O)c1ccc2c(c1)OCCO2 (centres undefined) here?
The Ki was 10 µM.

With COc1cc(C(=O)N(CC[C@H]2CCCN2C)C/C(C)=C/c2ccccc2F)cc(OCCOCCOCCNC(=O)CCCCCNC(=O)CCC2=[N+]3C(C=C2)Cc2c(C)cc(C)n2[B-]3(F)F)c1OC (some centres undefined) as the compound, how does the Activity [2] read?
The Activity was “Active”.

What about the Kd [3] of the same compound?
Its Kd is 0.151 µM.

How did the Ki [1] turn out when Cc1ccc(C(=O)c2cn(Cc3cccc(Br)n3)c3ccccc3c2=O)cc1C was run?
The Ki was 0.0398 µM.

How did the EC50 [4] turn out when COc1cc(C(=O)N(CC[C@H]2CCCN2C)C/C(C)=C/c2ccccc2F)cc(OC)c1OC was run?
The EC50 was 0.00501 µM.

What does the source list for COc1cc(C(=O)N(CC[C@H]2CCCN2C)C/C(C)=C/c2ccccc2F)cc(OCCOCCNC(=O)CCCCCNC(=O)CCC2=[N+]3C(=Cc4c(C)cc(C)n4[B-]3(F)F)C=C2)c1OC?
Activity [2]: Active; Kd [3]: 0.0813 µM

With COc1ccc(C(=O)N(CCC2CCCN2C)C/C(C)=C/c2cccc(F)c2)cc1OC (centres undefined) as the compound, how does the Ki [1] read?
Its Ki is 0.631 µM.

COc1cc(C(=O)N(CC[C@H]2CCCN2C)C/C(C)=C/c2ccccc2F)cc(OCCNC(=O)CCCCCNC(=O)CCC2=[N+]3C(=Cc4c(C)cc(C)n4[B-]3(F)F)C=C2)c1OC was tested. Which Activity [2] did it give?
The Activity was “Active”.

And the Kd [3]?
The Kd was 0.0129 µM.

What about the Activity [5] of the same compound?
The Activity was “inactive”.

What about the Activity [6] of the same compound?
Its Activity is “Active”.

How did the Ki [1] turn out when COc1ccc(C(=O)N(CCC2CCCN2C)C/C(C)=C/c2ccccc2F)cc1OC (centres undefined) was run?
Its Ki is 0.251 µM.

For COc1cc(C(=O)N(CC[C@@H]2CCCN2C)C/C(C)=C/c2ccccc2F)cc(OC)c1OC, which EC50 [4] is on record?
The EC50 was 0.02 µM.
